Reference: article PMC7147261, “Selective Antibacterial Activity and Lipid Membrane Interactions of Arginine-Rich Amphiphilic Peptides” (ACS Applied Bio Materials, 2020)
Ends that are not written are not given here.

Experiments:
[1] = previously reported; cited from earlier work
Method: The two “blocky” surfactant-like peptides […] and […] are both able to self-assemble in aqueous solution at concentrations in excess of critical values, obtained from fluorescence probe assays. The cac = 0.3 wt % (≡ 3.2 mM) for […] is higher than that previously obtained for the compositional homologue peptide […], for which the cac = 2.3 mM.[16]

[2] = system: 161br human skin fibroblasts; assay: in vitro; assay type: cell-based; conditions: 72 h, 0.05 wt %
Method: (§1) The cytotoxicity of both R3F3 and R4F4 was examined. In vitro cell culture was conducted using 161Br (European Collection of Authenticated Cell Cultures, ECACC) cells, a human skin fibroblast cell line. Cells were cultured in EMEM (Eagle’s minimum essential medium), with 2 mM glutamine, enriched with 15% fetal bovine serum (FBS) and 1% nonessential amino acids (NEAA). Cells were maintained in a humidified atmosphere of 37 °C, 5% CO2.
(§2) Potential cytotoxicity effects were examined using the MTT (3-(4,5-dimethylthiazol-2-yl)-2,5-diphenyltetrazolium bromide) assay. The peptides were dissolved in complete media. Cells were seeded into a 96-well plate at 4 × 10^4 cells/mL and allowed to adhere for 24 h in 100 μL complete medium. After this, 100 μL of either complete media and/or peptide solution was added, to give either control solution, or solutions of peptide between the concentrations of 0.0625–4 mg/mL.
(§3) Cells were incubated for 67 h. After this, 20 μL MTT (5 mg/mL, in PBS) was added to each well plate and allowed to incubate for 5 h. After a further 5 h (72 h total), the solution was removed from the wells and replaced with 100 μL of DMSO per well, which dissolves the formazan crystals. Plates were incubated for 30 min, and then analyzed using a UV microplate reader (λ = 570 nm). Results are reported as a percentage cell viability compared to control (untreated) values, and fitted to a sigmoidal function using Origin Lab as a guide to the eye.
(§4) Figure S2. CD data for a) R3F3 and b) R4F4 with DPPG (concentrations indicated) .
(§5) Figure S3. Cytotoxicity profiles from MTT assays, where 161br Human fibroblasts were exposed to
(§6) (a) R3F3 and (b) R4F4 for 72 hours. Control solutions were prepared by incubating cells with complete
(§7) media. Results are reported as a percentage compared to the control solutions. Error bars are the
(§8) standard deviation of 3 biological replicates (with 3 technical replicates pe r assay). IC50 values
(§9) (vertical blue dashed lines) were calculated in Origin using sigmoidal fits to the viability data (dashed […]

in vitro = assay type: cell-based, human; conditions: human
Method: as §1, §2, §3, §4, §5, §6, §7, §8, §9

Row | Substance | cac of compositional homologue peptide [1] | viability of human skin fibroblasts [2] | IC50 at 72 h (in vitro)
1 | RFRFRF [previously studied alternating RF peptide, compositional homologue of R3F3] | 2.3 mM | – | –
2 | RFRFRFRF [[RF]4, previously studied oligopeptide of alternating RF motifs, compositional homologue of R4F4] | 0.34 mM | – | –
3 | RRRFFF [R3F3] | – | 77% | 4.31 mM
4 | RRRRFFFF [R4F4] | – | 81% | 2.15 mM
